Tests used:
S1P lyase = target: T1, S1P lyase (Rattus norvegicus, UniProt Q8CHN6); experiment: S1P lyase inhibitory ability in rat (thymus gland extract after oral administration); assay type: in vivo; settings: thymus gland extract of orally dosed rats, [3H]dhS1P substrate, 37° C. for 1 hour
T1 construct: The excised thymus gland was crushed; from tissue; host or cells: thymus gland of male LEW/Crj rats (extract supernatant)
T1 sequence (Q8CHN6 1-568): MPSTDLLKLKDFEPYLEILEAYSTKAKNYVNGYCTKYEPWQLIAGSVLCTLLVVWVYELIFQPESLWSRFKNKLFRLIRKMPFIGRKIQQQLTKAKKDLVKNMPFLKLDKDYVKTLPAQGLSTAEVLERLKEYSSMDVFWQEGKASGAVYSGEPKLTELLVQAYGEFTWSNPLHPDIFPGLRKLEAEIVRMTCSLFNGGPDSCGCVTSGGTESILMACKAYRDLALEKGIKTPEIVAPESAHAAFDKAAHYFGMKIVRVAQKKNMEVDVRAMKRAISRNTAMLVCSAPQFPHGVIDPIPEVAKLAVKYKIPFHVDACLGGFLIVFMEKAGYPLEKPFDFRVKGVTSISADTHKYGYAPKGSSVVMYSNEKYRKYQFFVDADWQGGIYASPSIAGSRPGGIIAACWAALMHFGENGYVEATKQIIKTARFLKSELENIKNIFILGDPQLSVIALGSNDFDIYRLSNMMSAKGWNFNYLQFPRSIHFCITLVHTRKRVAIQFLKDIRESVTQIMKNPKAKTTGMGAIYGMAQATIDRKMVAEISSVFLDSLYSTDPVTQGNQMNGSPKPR
Protocol: Male LEW/Crj rats at 3 or 6 weeks old were purchased from Charles River Laboratory Japan Inc. The rats were acclimatized for a week before the start of experiments. The rats were used for the experiments at 3 or 5 rats per one group. A necessary amount of a compound was weighed and suspended in a 0.5% MC solution by using a mortar and a muddler, or a homogenizer. A liquid for administration was prepared so as to be 5 mL per 1 kg body weight. The prepared solution was administered once by oral gavage. […] The blood was immediately put into a vacuum-sealed blood collection tube coated with an anticoagulant (EDTA-2K) (Nipro Corporation) and mixed. The sample was handled under room temperature condition until measurement. The number of the lymphocytes was measured by using an automatic hemacytometer (ADVIA120, Siemens Healthcare Diagnostics K. K.). […]
The excised thymus gland was crushed by either a method including using zirconia beads in the presence of a homogenize buffer (50 mM HEPES-NaOH (pH=7.4), 0.15 M NaCl, 10% Glycerol, 1 mM EDTA, 1 mM DTT and complete protease inhibitor cocktail (Roche, #4693132)) or a method including chopping up the thymus gland and thereafter using a Potter-Elvehjem homogenizer. […] The protein amount in the supernatant was quantified by the Bradford method, and the supernatant was flash-freezed with liquid nitrogen and then stored at −80° C. […]

[1] = test system: lymphocytes in the peripheral blood; experiment: Variation in number of lymphocytes in peripheral blood in rat; assay type: in vivo; settings: male LEW/Crj rats, single oral gavage, suspension in 0.5% MC solution
Protocol: Male LEW/Crj rats at 3 or 6 weeks old were purchased from Charles River Laboratory Japan Inc. The rats were acclimatized for a week before the start of experiments. The rats were used for the experiments at 3 or 5 rats per one group. A necessary amount of a compound was weighed and suspended in a 0.5% MC solution by using a mortar and a muddler, or a homogenizer. A liquid for administration was prepared so as to be 5 mL per 1 kg body weight. The prepared solution was administered once by oral gavage. […] The blood was immediately put into a vacuum-sealed blood collection tube coated with an anticoagulant (EDTA-2K) (Nipro Corporation) and mixed. The sample was handled under room temperature condition until measurement. The number of the lymphocytes was measured by using an automatic hemacytometer (ADVIA120, Siemens Healthcare Diagnostics K. K.). At the time of blood collection, the thymus gland was also excised.

Row | SMILES | S1P lyase activity in the thymus gland (S1P lyase) | number of lymphocytes in the peripheral blood [1]
1 | CC(=O)c1nc(COP(=O)(O)O)c[nH]1 [Example 1, Phosphoric acid mono-(2-acetyl-1H-imidazol-4-ylmethyl) ester and phosphoric acid mono-(2-acetyl-3H-imidazol-4-ylmethyl) ester] | decreased SIP lyase activity in the thymus gland | reduced the number of lymphocytes in the peripheral blood
2 | CC(=O)c1nc(COP(=O)(O)O)c(C)[nH]1 [Example 2, Phosphoric acid mono-(2-acetyl-5-methyl-1H-imidazol-4-ylmethyl) ester and phosphoric acid mono-(2-acetyl-5-methyl-3H-imidazol-4-ylmethyl) ester] | decreased SIP lyase activity in the thymus gland | reduced the number of lymphocytes in the peripheral blood
3 | O=P(O)(O)OCc1c[nH]c(-c2ccon2)n1 [Example 4, Phosphoric acid mono-(2-isoxazol-3-yl-1H-imidazol-4-ylmethyl) ester and phosphoric acid mono-(2-isoxazol-3-yl-3H-imidazol-4-ylmethyl) ester] |  | reduced the number of lymphocytes in the peripheral blood
